Results: patent publication US5382578A, “Methods for treating convulsions and ischemia with substituted dibenzoxazepine compounds” (G. D. Searle & Co., priority 1993, dated 1995)
“Also recorded” adds a separate entry of the source. Where a name gives a salt, the structure may show the parent alone. Read-outs that look alike come from different tables or passages of the source.

Legend:
[1] = molecular target: T1, prostaglandin E2-induced contractions of segments of guinea pig ileum (Cavia porcellus, UniProt A0A286XHJ6); assay: Prostaglandin (PGE) Antagonism Assay, guinea pig ileum; type: cell-based; parameters: key to PGE in guinea pig ileum, activity: Active: the initial concentration used yielded at least a two-fold shift (dose ratio greater than or equal to 2) in the dose response curve for prostaglandin E2
T1 construct: Segments of ileum about 2 cm long were then cut and mounted in a 10-mL tissue bath; from tissue; host or cells: guinea pig ileum segments
T1 sequence (A0A286XHJ6 1-405): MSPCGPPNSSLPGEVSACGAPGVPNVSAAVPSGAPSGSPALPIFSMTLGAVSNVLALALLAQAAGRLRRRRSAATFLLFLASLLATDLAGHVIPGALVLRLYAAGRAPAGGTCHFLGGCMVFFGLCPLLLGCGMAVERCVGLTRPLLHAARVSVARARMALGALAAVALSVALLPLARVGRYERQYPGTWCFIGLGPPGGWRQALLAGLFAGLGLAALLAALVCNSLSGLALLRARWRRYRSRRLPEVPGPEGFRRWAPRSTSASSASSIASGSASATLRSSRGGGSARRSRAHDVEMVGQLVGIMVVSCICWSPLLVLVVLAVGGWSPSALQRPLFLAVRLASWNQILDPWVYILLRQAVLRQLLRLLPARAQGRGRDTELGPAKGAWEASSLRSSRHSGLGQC
Method: In order to determine the effectiveness of several of the compounds of the present invention ("test compounds") as prostaglandin E2 antagonists,a prostaglandin antagonism assay was conducted, as described below, to determine the ability of these compounds to inhibit prostaglandin E2 -induced contractions of segments of guinea pig ileum.
Male albino guinea pigs weighing 200 to 500 grams were sacrificed by cervical dislocation. The ilea were then quickly removed from the guinea pigs and placed in a modified Tyrode solution, a solution which is known to those skilled in the art, containing one-half of the usual amount of magnesium ions.
Segments of ileum about 2 cm long were then cut and mounted in a 10-mL tissue bath containing the modified Tyrode solution. The solution was maintained at 37° C. and aerated with a gaseous mixture of 95% oxygen and 5% carbon dioxide. Data for a control prostaglandin E2 dose response curve plotting concentration of prostaglandin E2 versus the intensity of contractions, detected isotonically, was then obtained by experimentally adjusting the dose of the prostaglandin E2 being injected into the tissue bath, in a manner known by those of skill in the art.
solutions or suspensions containing an initial concentration (3 micromolar) of a test compound in modified Tyrode solution ("test solutions/suspensions") were then separately substituted for the control bath solution. Each test solution/suspension was then kept in constant contact with the ileum tissue, except for brief periods to drain the bath in preparation for rinsing with fresh test solution/suspension. A second prostaglandin E2 dose response curve was then generated for prostaglandin E2 in the presence of a test compound.
A dose ratio of EC50 doses was then calculated from the results of each test in a manner known by those of skill in the art. A test compound was determined to be "active" if the initial concentration used yielded at least a two-fold shift (dose ratio greater than or equal to 2) in the dose response curve for prostaglandin E2.

[2] = system: stimulant actions of prostaglandins on isolated smooth muscle preparations; settings: literature; cited from earlier work
mouse injected with PBQ = assay: Writhing Assay (PBQ-induced writhing in mice); type: in vivo, Charles River male albino mice; settings: for ED50: Mus musculus
Description: The Writhing Assay is one of the most widely-used experimental procedures for measuring the analgesic activity of different narcotic and nonnarcotic analgesic agents, and involves the continuous, chemically-induced pain of visceral origin to an animal, such as a mouse or rat. [Gyires et al., Arch., int. Pharmacodyn, 267, 131-140 (1984); C. Vander Wende et al., Fed. Proc., 15, 494 (1956); Koster et al., Fed. Proc., 18, 412 (1959); and Witken et al., J. Pharmacol. exp. Ther., 133, 400-408 (1961).] Chemicals which may be used to induce this pain include phenylbenzoquinone (PBQ) and acetic acid. As a result of the chemical irritation to the animal, a characteristic stretching and writhing of the animal (dorsiflexion of the animal's back, extension of its hindlimbs and the strong contraction of its abdominal musculature) will generally occur. […] Drugs which reduce the number of writhes of the animal appear to restore the normal nociceptive threshold of the animal.
Charles River male albino mice, weighing 20 to 30 grams, were used in this assay.
Thirty minutes after subcutaneous or intragastric administration to ten mice of 30 mg per kilogram of body weight of a compound of the present invention ("test compound"), […] per 10 g of body weight of a 0,025% w/v solution of PBQ was injected intraperitoneally into each mouse. Ten mice which were given saline in place of a test compound of the invention were used as a control group.
Five minutes later, each mouse was individually placed into a glass beaker for observation, and the number of writhes occurring during the following ten-minute period was counted.
A test compound was considered to have produced analgesia in a mouse if, in accordance with the conditions set forth above, and under the test criteria employed for this assay, after the administration of 30 mg per kilogram of body weight of a compound of the present invention to the mouse, the number of writhes elicited by a mouse injected with PBQ was equal to, or less than, one-half the median number of writhes recorded for the saline-treated control group of mice that day, as described by Taber in "Predictive Value of Analgesic Assays in Mice and Rats," Advances in Biochemical Psychopharmacology, 8, 191 (1974).
The standard initial screening dose of a test compound employed in this assay was […] for both routes of administration. If this initial screening dose of the test compound produced analgesia in seven of ten mice, then the effect of additional doses of the test compound on the writhing response was evaluated, and then the ED50 dose was generally calculated. (The slopes of the dose-response curves for all test compounds analyzed were compared as described by Tallarida and Murray, Manual of Pharmacologic Calculations, Page 11 (Springer Verlag, New York, 1981)).

[3] = system: urethane-anesthetized rats; settings: literature; cited from earlier work
[4] = Schild plot calculation, varying concentrations, read-out: PGE in guinea pig ileum (pA2) (converted)
[5] = initial concentration 3 micromolar
[6] = estimated, assuming Schild slope -1.0, initial concentration 3 micromolar, read-out: PGE in guinea pig ileum, Estimated pA2 value (converted)
[7] = sc, subcutaneous, read-out: Writhing Assay ED50 Dose, S.C.
[8] = po, intragastric, read-out: Writhing Assay ED50 Dose, I.G.

SMILES | Kb [1, 4] [nM] | PGE in guinea pig ileum, activity [1, 5] | Kb [1, 6] [nM] | rank order of potency in the Writhing Assay (mouse injected with PBQ) | other results
O=C(Cc1ccccc1)NNC(=O)N1Cc2ccccc2Oc2ccc(Cl)cc21 [SC-18637] | – | – | – | – | effect on stimulant actions of prostaglandins on isolated smooth muscle preparations [2]: inhibit the stimulant actions of prostaglandins on isolated smooth muscle preparations
O=C(CCc1ccncc1)NCC(=O)N1Cc2ccccc2Oc2ccc(Cl)cc21 [Example 3, N-[2-{8-chloro-10,11-dihydrodibenz[b,f][1,4]oxazepin-10-yl)-2-oxoethyl]-4-pyridinepropanamide, monohydrochloride] | – | Active | 2000 | Example 1>Example 2>Example 3>Example 9 | ED50 (mouse injected with PBQ; [7]): 16.9 mg/kg
CC(=O)NNC(=O)N1Cc2ccccc2Oc2ccc(Cl)cc21 [SC-19220] | – | – | – | – | effect on stimulant actions of prostaglandins on isolated smooth muscle preparations [2]: inhibit the stimulant actions of prostaglandins on isolated smooth muscle preparations; effect on bladder capacity [3]: increased the bladder capacity; effect on voiding efficiency of micturition [3]: reduced the voiding efficiency of micturition
O=C(CCSCc1ccco1)NCC(=O)N1Cc2ccccc2Oc2ccc(Cl)cc21 [Example 2, N-[2-(8-chloro-10,11-dihydrodibenz[b,f][1,4]oxazepin-10-yl)-2-oxoethyl]-3[(2-furanylmethyl)thio]propanamide] | 10 | Active | – | Example 1>Example 2>Example 3>Example 9 | ED50 (mouse injected with PBQ; [8]): 13.5 mg/kg; ED50 (mouse injected with PBQ; [7]): 14.8 mg/kg
CCS(=O)(=O)CCC(=O)NCC(=O)N1Cc2ccccc2Oc2ccc(Cl)cc21 [Example 1, N-[2-(8-chloro-10,11-dihydrodibenz[b,f][1,4]oxazepin-10-yl)-2-oxoethyl]-3-(ethylsulfonyl) propanamide] | – | Active | 2000 | Example 1>Example 2>Example 3>Example 9; also recorded: the most potent compound of the invention tested in this assay | ED50 (mouse injected with PBQ; [8]): 5.9 mg/kg; ED50 (mouse injected with PBQ; [7]): 11.2 mg/kg

The next lines start with results.

Kb [1, 4] [nM] | PGE in guinea pig ileum, activity [1, 5] | Kb [1, 6] [nM] | SMILES | rank order of potency in the Writhing Assay (mouse injected with PBQ) | other results
12.6 | Active | – | O=C(CCSCc1cccs1)NCC(=O)N1Cc2ccccc2Oc2ccc(Cl)cc21 [Example 4, N-[2-(8-chlorodibenz-10-11-dihydrobenz[b,f][1,4]oxazepin-10-yl)-2-oxoethyl]-3-[(2-thenylmethyl)thio]propanamide] | – | –
– | Active | 2510 | CCS(=O)(=O)CCC(=O)CNC(=O)N1Cc2ccccc2Oc2ccc(Cl)cc21 [Example 8, 8-chloro-N-[4-(ethylsulfonyl)-2-oxobutyl]dibenz[b,f][1,4]oxazepin-10(11H)-carboxamide] | – | –
63.1 | Active | – | O=C(CCSCc1ccco1)CNC(=O)N1Cc2ccccc2Oc2ccc(Cl)cc21 [Example 9, 8-chloro-N-[4-[(2-furanylmethyl)thio]-2-oxobutyl]dibenz[b,f][1,4]oxazepin-10(11H]-carboxamide] | Example 1>Example 2>Example 3>Example 9 | –
– | Active | – | NCCC(=O)NCC(=O)N1Cc2ccccc2Oc2ccc(Cl)cc21 [Example 5, 3-Amino-N-[2-(8-chloro-10,11-dihydrodibenz[b,f][1,4]oxazepin-10-yl)-2-oxoethyl]-propanamide, monohydrochloride] | – | PGE in guinea pig ileum, Estimated pA2 value ([1]; estimated, assuming Schild slope -1.0, initial concentration 3 micromolar): 5.5
316 | Active | – | O=C(CCNCc1cccs1)NCC(=O)N1Cc2ccccc2Oc2ccc(Cl)cc21 [Example 7, N-[2-(8-chloro-10,11-dihydrodibenz[b,f][1,4]oxazepin-10-yl)-2-oxoethyl)-3-[(2-thienylmethyl)amino]propanamide, monohydrochloride] | – | –
– | Active | 1260 | CN(C)CCSCCC(=O)NCC(=O)N1Cc2ccccc2Oc2ccc(Cl)cc21 [Example 6, N-[2-(8-chloro,10,11-dihydrodibenz[b,f][1,4]oxazepin-10-yl)-2-oxoethyl]-3-[[2-(dimethylamino)ethyl]thio]propanamide, monohydrochloride] | – | –
